Measurements as given in patent US10364230B2, “Chromene-2 derivatives and use thereof in the treatment of fibrosis” (ALTAY THERAPEUTICS, INC., priority 2014, dated 2019).

Legend:
[1] = system: TGFbeta-induced collagen synthesis in L929 cells; assay: TGFbeta-induced total collagen synthesis in L929 cells (sircol dye); type: cell-based; conditions: 50 micromole CP1 for 1 hour, then 5 ng/ml Mouse TGFβ2, 72 hours, FIG. 1
Excerpt: (§1) The present invention is about novel compounds which may offer alternative treatment options against IPF, which believed to develop as a consequences of smoking, pollution, allergens, toxins and seen in people who are older than 50 years old. The compounds mentioned in this application have been generated from “6,7-dimethoxy 2H-chromen-one (1), which was identified from local medicinal plants during our screening studies. The anti-fibrotic activity of this compound (“6,7-dimethoxy 2H-chromen-one (I) against TGF beta-induced collagen synthesis using 1.929 cells has been identified. For this, in 96-well plates, 1.929 cells were cultured in DMEM supplemented with % 10 serum, 10 μg/ml ascorbic acid and 20 μM prolin until they reached to confluency. Confluent cells were treated with 50 micromole of our compound (named as CP1) dissolved in DMSO for 1 hour, then 5 ng/ml of Mouse TGFβ2 was added and cells were further incubated for 72 hours at incubator supplied with 5% CO2 and 80% humidity. At the end of this incubation one of the plate was used to determine cell viability by using MTT test, FIG. 2. The second 96-well plate was used to determine the level of total collagen. […] Absorbance of developed color was determined at 600 nm. […] In addition to total collagen, we also determined the level of “secreted collagen” by using ELISA. […]

[2] = system: TGFbeta-induced secreted collagen synthesis in L929 cells; assay: TGFbeta-induced secreted collagen in L929 cells (anti-collagen type I ELISA); type: cell-based; conditions: 50 micromole CP1, 5 ng/ml Mouse TGFβ2, 72 hours, culture supernatant, FIG. 3
Excerpt: as §1

## COc1cc2ccc(=O)oc2cc1OC [CP1, 6,7-dimethoxy 2H-chromen-2-one]
[1]; TGFβ alone induced % 20
  TGFβ-induced collagen level in the presence of CP1, compared to control cells: 10%
[1]; total collagen, sircol, absorbance 600 nm
  inhibition of TGFβ-induced collagen synthesis: 50%
[2]
  effect on TGFβ-induced secreted collagen level: significantly inhibits
